The values below come from patent US11759461B2, “Small molecule inhibitors of cancer stem cells and mesenchymal cancer types” (The Scripps Research Institute, priority 2017, dated 2023).

Experiment [1] deals with control HMLER cells. The experiment can be described thus: Cell Titer Glo viability of control HMLER cells. Conditions: Homo sapiens; 72-hour incubation; read-out: HMLER IC50. It is filed as cell-based. The source says:
An engineered cancer cell line HMLER as an isogenic screening system was employed to identify compounds that are selectively toxic to the FOXC2 positive genotype. HMLER cells are derived from mammary epithelial cells (HMECs), but are virally transformed with the […] oncogene (G12V), human telomerase reverse transcriptase (hTERT), and SV40 large-T antigen (B. Elenbaas, B. et al. Genes Dev. 15 (2001) 50-65). Expression of these genes endows HMLER cells with functional immortality and tumorigenic potential at high seeding number (>10^6 cells; Hollier (2013)). […]
For high throughput screening, FOXC2-HMLER and HMLER cells were plated at 10^3 cells per well in white 384-well plates in 50 μL of MEGM medium (Lonza). […] After 72-hour incubation, 30 μL of a Cell Titer Glo solution (diluted 1:6 in water, Promega) was dispensed into each well and luminance values were recorded using an Envision plate reader. […]
More specifically, in the high throughput screening assay above, each cell line was plated at 1,000 cells per well in 384-well plates, treated for 72 hours with 2 μM of test compound, and the viability of each line was determined in parallel by Cell Titer Glo (Promega) luminance measurements. […]
(Cellular ATP, detected with luciferase, serves as a proxy for viable cell number.)

Experiment [2] deals with SNAIL-HMLE, MDA-MB-231, and SUM159. The experiment can be described thus: Growth inhibition of additional mesenchymal breast cancer cell lines. It is filed as cell-based, human. As to conditions: MDA-MB-231, SUM159, express FOXC2 from endogenous locus. An excerpt: The propagation conditions and generation of FOXC2-HMLER, HMLER, SNAIL-HMLER, SNAIL-HMLE, and SUM159 cells have been described previously (Mani (2008)). MCF-7, HepG2, HCT116, and MDA-MB-231 cells were from ATCC and maintained in DMEM medium (Corning) supplemented with 10% FBS (Corning) with Anti-anti (Gibco). The soft tissue sarcoma cell line panel was purchased from ATCC (TCP-1019) and maintained in the recommended medium for each cell type. HUVEC cells (pooled donor) were maintained in EBM-2 medium (both from Lonza Walkersville). Primary human lung fibroblasts were maintained in Fibroblast Medium (both from Sciencell Research Laboratories). For cell growth experiments, HLFs were grown in DMEM supplemented with 2% FBS and Anti-anti. For all experiments, primary human cells were used at a passage no greater than 4.
For high throughput screening, FOXC2-HMLER and HMLER cells were plated at 10^3 cells per well in white 384-well plates in 50 μL of MEGM medium (Lonza). Cells were allowed to attach for one hour before compound was transferred to each well as a DMSO solution using a 100 nL pintool head affixed to a PerkinElmer FX instrument. After 72-hour incubation, 30 μL of a Cell Titer Glo solution (diluted 1:6 in water, Promega) was dispensed into each well and luminance values were recorded using an Envision plate reader. […]

The subject of experiment [3] is FOXC2-HMLER, SNAIL-HMLER, SUM159, and MDA-MB-231 cells. The experiment can be described thus: In vitro mammosphere formation assay. Conditions: 1 μM compound during assay (14 days). It is filed as cell-based, human. As to the method: FIG. 3: Quantification of mammospheres from an in vitro mammosphere formation assay with the indicated cell types. Pretreatment indicates a 72-hour treatment with 1 μM Compound 1 before plating in mammosphere formation conditions. The expression “during assay” indicates 1 μM compound treatment during the mammosphere assay (14 days) (n=3, mean and s.d.).
Epithelial-mesenchymal transition (EMT) induction endows breast cancer cells with the ability to grow as mammospheres in culture (Mani (2008)).

The target of experiment [4] is T1, VIM (Homo sapiens, UniProt P08670).
T1 construct: endogenous in cells; host or cells: FOXC2-HMLER
T1 sequence (P08670 whole entry): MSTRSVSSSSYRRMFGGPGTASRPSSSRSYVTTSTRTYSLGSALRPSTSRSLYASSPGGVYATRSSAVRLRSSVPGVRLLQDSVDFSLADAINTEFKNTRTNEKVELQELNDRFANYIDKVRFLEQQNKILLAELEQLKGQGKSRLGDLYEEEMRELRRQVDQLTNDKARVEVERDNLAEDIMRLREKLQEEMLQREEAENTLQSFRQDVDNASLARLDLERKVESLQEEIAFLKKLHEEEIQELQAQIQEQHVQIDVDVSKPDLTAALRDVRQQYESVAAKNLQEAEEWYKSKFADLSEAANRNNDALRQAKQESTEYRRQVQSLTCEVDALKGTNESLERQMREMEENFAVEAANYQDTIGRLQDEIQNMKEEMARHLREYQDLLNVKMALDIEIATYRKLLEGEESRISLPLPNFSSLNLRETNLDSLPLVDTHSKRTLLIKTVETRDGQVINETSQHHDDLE
The experiment in a line: Western blotting / immunofluorescence of VIM protein status in FOXC2-HMLER cells. It is filed as cell-based. As to the method:
Western blotting was performed essentially as described previously (M. J. Bollong et al. ACS Chem. Biol. 10 (2015) 2193-2198). Cells were collected by brief trypsinization and centrifugation at 500 g for 5 minutes. Cells were lysed by the addition of RIPA buffer with protease and phosphatase inhibitors (Roche). Lysates were incubated on ice for 30 minutes before eliminating insoluble protein content by centrifugation at 12,000 g for 5 minutes at 4° C. Protein concentrations were determined from absorbance values obtained by a Nanodrop instrument. Equal amounts of protein were then mixed with 2× loading buffer (100 mM TRIS-HCl, 1% SDS, 10% glycerol, 0.1% bromophenol blue 10%-mercaptoethanol) and exposed to 95° C. for 5 minutes. Protein was separated by SDS-PAGE using 4-12% Bis-Tris Gels (Invitrogen) and then transferred to PVDF membranes (Invitrogen) using semi-dry transfer. Membranes were blocked for 1 hour at room temperature in 5% non-fat dry milk in TBST (Tris buffered saline with 0.1% Tween 20). Membranes were incubated overnight with primary antibodies in blocking buffer overnight at the dilutions ranging from 1:500 to 1:2000. After 3 washes with TBST, membranes were then exposed to HRP-conjugated secondary antibodies (1:5000 in blocking buffer, Sigma) for one hour followed by one hour of additional washing with TBST. Relative protein content was visualized using film and SuperSignal West Dura Substrate. For VIM degradation blots, 20-60 μg of protein content was loaded per gel lane and the anti-VIM antibody V9 (ab8069) was used to blot for VIM protein content. Phospho-protein blots were performed as above with the exception that primary antibodies were incubated in 5% bovine serum albumin in TBST instead of milk.
We performed Western blotting analysis of FOXC2-HMLER cells treated for 24 hours with Compound 1 with commercially available antibodies targeting specific phosphorylated VIM species (P-S39, P-S56, P-S83).
In contrast, only a small fraction of cells undergoing mitosis stained positive for P-S56-VIM in DMSO-treated controls, consistent with previous reports identifying phosphorylation at S56 as a modification catalyzed by cyclin dependent kinase 1 (CDK1; FIG. 6) (T. Yamaguchi, T. et al., J. Cell Biol. 171 (2005) 431-436.
On the technique in general: Immunoblotting shows a protein as a band on a membrane.

Where [5] appears, read: FOXC2-HMLER cells, 24 hours, 500 nM, Western blotting.
Where [6] appears, read: FOXC2-HMLER cells, Western blotting.

Regarding `Clc1cccc(N2CCN(c3cnnc4c(Cl)cccc34)CC2)c1` [Compound 1, 8-chloro-4-(4-(3-chlorophenyl)piperazin-1-yl)cinnoline], in experiment [1], the half-maximal inhibitory concentration (IC50) was greater than 20 µM. Moreover, the “growth of additional mesenchymal breast cancer cell lines” value in experiment [2] is recorded as “inhibit the growth”. Further, the “ability to form mammospheres in culture” value in experiment [3] is reported as “inhibited the ability”. Besides, in experiment [4] (setting [5]), the “P-S39- and P-S83-VIM protein content” value was “modest increase”; the “steady state levels of P-S56-VIM” value was “marked increase”. Also, in experiment [4] (setting [6]), the “dibromobimane-crosslinked dimeric VIM protein content” value was “dramatically reduced” and the “lower molecular weight VIM degradation products” value is “dose-dependent accumulation”. In addition, in experiment [4] (immunofluorescent staining), the “P-S56-VIM positive FOXC2-HMLER cells” value is “concentration dependent increase”.

For orientation: IC50 means the concentration needed to halve the response being measured.
